We go through two molecules from patent US20250208133A1, “SENESCENT CELL SURFACE MARKERS” (SENS RESEARCH FOUNDATION, priority 2022, published 2025).

Common to all, as to type: cell-based, human
The test system of data set [1] is senescent IMR-90 cells. Put plainly: xCELLigence RTCA impedance viability assay, senescent cells. How it is done: (§1) Human IMR-90 fibroblasts (ATCC, USA) were treated with 300 nM of doxorubicin hydrochloride (Millipore Sigma, USA; Cat #504042) in DMEM complete media for 24 hours or ionizing radiation (10 Gy X-ray) and maintained in culture. Primary human endothelial cells were treated with 250 nM of doxorubicin in promo cell basal medium supplemented with Growth Medium MV 2 Supplement Pack for 24 hours and maintained in culture. Senescent cells were used 7-13 days following treatment.
For measurement of background values, 50 μl of complete medium was added to E-Plates 96 (Agilent). Cells were seeded in a total of 200 μl of medium per well at a density of 10,000 cells per well. Cell attachment was monitored using the RTCA MP (Agilent) instrument and the RTCA software (Agilent). Media was replaced with media containing either DMSO, vacuolin-1 or apilimod. Cells treated with 0.2% Triton X-100 was used as a 100% dead cell positive control for cytotoxicity assays. After drug addition, impedance measurements were recorded every 15 minutes. All experiments were performed in at least 5 replicates for each dose. Changes in impedance were expressed as a cell index (CI) value, which derives from relative impedance changes corresponding to cellular coverage of the electrode sensors, normalized to baseline impedance values with medium only. To analyze the acquired data, CI values were exported, and percentage of attached cell surface was calculated in relation to positive controls and DMSO-treated cells.
Senescent cells are known to employ several mechanisms to increase their survival. For example, increased expression of the pro-survival BCL-family proteins has been widely studied. In fact, BCL antagonism has been the basis of many senolytic drugs (see, e.g., Zhu, et al., Aging Cell. 2016 June; 15(3):428-35). Vacuolin-1 was used to determine if lysosomal exocytosis is a mechanism for senescent cell survival. Vacuolin-1 is a potent inhibitor of Phosphatidylinositol-3-phosphate 5-kinase type III (PIKfyve), which is a key player in lysosomal exocytosis allowing lysosomes to fuse with the plasma membrane. The viability assay was performed in senescent IMR-90 cells using xCELLigence Real-Time Cell Analysis (RTCA) system that uses label-free cellular impedance to monitor cell health and viability over time.

A short description of data set [2]: Crystal violet staining cell viability, non-senescent cells. The following applies: human, non-senescent IMR-90 fibroblasts, non-senescent cells, read-out: cell viability, quantification of adherent cells. How it is done: (§2) Cell viability after 48 h of apilimod (1 μM) or vacuolin-1 (1 μM) treatment was estimated by crystal violet. Cells in 6-well cell culture plates (Greiner Bio-One; Cat #657160) were washed twice with PBS, incubated with 4% paraformaldehyde for 15 minutes at room temperature, then stained with 0.25% crystal violet for 10 minutes. Cells were washed with deionized water and imaged, 3 images per well.
(§3) Apilimod is a clinical PIKfyve inhibitor. Apilimod was used to further validate the senolytic effects of PIKfyve inhibitors. […] To further characterize the potent cytotoxic effect of apilimod on non-senescent versus senescent cells, IMR-90 fibroblasts were treated with 1 μM of apilimod. […] Of note, the decrease in viable apilimod-treated non-senescent cells after 48 hours of treatment is likely in part due to a decrease in proliferation rather than viability of apilimod-treated cells.

The test system of data set [3] is non-senescent IMR-90 fibroblasts. The description is as above. The following applies: 1 μM, 48 hours. How it is done:
as §2, §3

For data set [4], the system named is senescent IMR-90 fibroblasts. The data set is described as follows: Crystal violet staining cell viability, senescent cells. The following applies: 48 hours. How it is done:
as §1, §2, §3

The test system of data set [5] is non-senescent (NS) IMR-90 cells. Put plainly: xCELLigence RTCA impedance viability assay, non-senescent cells. The following applies: 48 hours of treatment with 1 μM.

On to `Cc1cccc(/C=N/Nc2cc(N3CCOCC3)nc(OCCc3ccccn3)n2)c1` [apilimod], for which the senescent cell survival entry in data set [1] (48 hours of treatment with 1 μM) and in data set [1] (48 hours of treatment with 5 μM) was “No senescent cells survived” throughout. In data set [1] (dose response), the senescent cell viability result is reported as “dose-dependent declines in senescent cell viability”. Moreover, in data set [2], the viability at 48 h, 1 µM came out at 92%. For the same molecule, the “non-senescent cell viability, light microscopy of crystal violet-stained cells” value in data set [3] is listed as “no effect”. Further, the “viability of senescent cells, light microscopy of crystal violet-stained cells” value in data set [4] (1 μM) was “significant decrease”. The viability at 1 µM in data set [4] (Homo sapiens, IMR-90, senescent condition, read-out: viable cells, quantification of adherent cells) amounted to 17%.

Turning to `Ic1cccc(/C=N/Nc2nc(N3CCOCC3)nc(N(c3ccccc3)c3ccccc3)n2)c1` [vacuolin-1], the “mean normalized cell index” value in data set [5] amounted to 1.2; in data set [1] (senescent cells, 48 hours of treatment with 1 μM) it was 0.4. Also, in data set [1] (senescent vs NS IMR-90 cells, dose response), the “selective killing of senescent cells by blocking lysosomal exocytosis” value is “selectively killed senescent IMR-90 cells in a dose-dependent manner”.
